Results reported in patent publication US6673625B2, “Saccharide sensing molecules having enhanced fluorescent properties” (The Regents of the University of California, priority 1999, dated 2004).

What was measured:
[1] = Cyclic voltammetry (glassy carbon, Ag/AgCl reference, 0.1 M NBu4ClO4 in acetonitrile); type: physicochemical; settings: for first oxidation potential (amine) / first reduction potential: vs. Ag/AgCl; for Amine Oxidation Potential E° (D^+/D) / Fluorophore Reduction Potential E° (A/A^−): Ag/AgCl reference
Procedure: Samples for FT IR spectroscopy were prepared as solutions in CHCl3, and only the C═O stretches are reported. Unless otherwise stated, all NMR spectra were recorded at 500 MHz for ^1H and 125 MHz for ^13C at 20-25° C. using CDCl3 as the solvent. Unless stated otherwise, mass spectra were obtained using electrospray ionization (50 V) with a 50/50 methanol/water solvent mixture with ^1% acetic acid added. Cyclic voltammetry was conducted using a glassy carbon working electrode, platinum counter electrode, and Ag/AgCl reference electrode and carried out in a 0.1 M solution of NBu4ClO4 in acetonitrile.
(§1) Summarized Syntheses. As the syntheses are described as a series of analogous compounds with general procedures are given below. Cyclic voltammetry was conducted using a glassy carbon working electrode, platinum counter electrode, and Ag/AgCl reference electrode and carried out in a 0.1 M solution of NBu4ClO4 in acetonitrile. Samples for fluorescence were prepared as 1.00 mM stock solutions in MeOH. A 30.0 μL aliquot of solution was then added to 3.000 mL of the appropriate solvent mixture (a combination of methanol and phosphate buffered saline—PBS). Relative quantum yields were determined by the relative output of equimolar solutions of two compounds using 3ay as a reference. Glucose additions were performed by the addition of a concentrated solution of glucose in PBS to a stirred solution of the fluorescent molecule in methanol/PBS.
(§2) General. All reactions were performed under an atmosphere of N2, followed by work-up in air. Protected boronate esters were stored under vacuum to prevent slow hydrolysis from atmospheric moisture. Unless stated otherwise, all chemicals were purchased from commercial suppliers. Anhydrous solvents from Aldrich were used for all reactions. Starting compounds known in the art such as N-n-butyl-4-chloronaphthalene-1,8-dicarboximide(1ax), 2,2-dimethylpropane-1,3-diyl[o-(bromomethyl) phenyl]boronate, were prepared by literature methods (see e.g. Daffy et al. Chem-Eur J 1998, 4, 1810-1815; de Silva et al., Chem Rev 1997, 97, 1515-1566). Samples for FT IR spectroscopy were prepared as solutions in CHCl3, and only the C═O stretches are reported here. All mass spectra were obtained using electrospray ionization (ESI/MS) with an ionization potential of 50V and a solvent system consisting of 1% acetic acid in 50/50 methanol/water. Cyclic voltammetry was conducted using a glassy carbon working electrode, platinum counter electrode, and Ag/AgCl reference electrode and carried out in a 0.1 M solution of NBu4ClO4 in acetonitrile. Samples for fluorescence measurements were prepared as 1.00 mM stock solutions in MeOH. A 30.0 μL aliquot of solution was then added to 3.000 mL of the appropriate solvent mixture (a combination of methanol and phosphate buffered saline—PBS) giving a final concentration of 10.0 μM for each complex. Changes in pH were carried out by the addition of small volumes of concentrated hydrochloric acid, acetic acid, or sodium hydroxide. Glucose additions were performed by the addition of a concentrated solution of glucose in PBS to a stirred solution of fluorophore in a cuvette. Relative quantum yield measurements were carried out by measuring the relative intensities of equimolar solutions (10.0 μM) of two fluorophores. Compound 3ay was used as the reference.

[2] = Fluorescence pH switching; settings: for change in fluorescence: pH changed from 11 to 2
Procedure: Samples for fluorescence were prepared as 1.00 mM stock solutions in MeOH. A 30.0 μL aliquot of solution was then added to 3.000 mL of the appropriate solvent mixture (a combination of methanol and phosphate buffered saline—PBS) giving a final concentration of 10.0 μM for each complex. […] Glucose additions were performed by the addition of a concentrated solution of glucose in PBS to a stirred solution of fluorophore in a cuvette.

[3] = Rehm-Weller estimate of free energy of photoinduced electron transfer (PET); type: physicochemical; settings: for ΔGPET: Rehm-Weller estimate; for λ00: average of excitation and emission maxima
Description: The search for new fluorescent glucose transducers based on photoelectron transfer (PET) requires, among other things, an understanding of the electrochemistry of any potential donor-acceptor pair. The free energy of PET (ΔGel) can be calculated using the Rehm-Weller equation shown below:
ΔGel(kcal mol^−1)=23.06[E^0(D^+/D)−E^0(A/A^−)]−wp−wr−ΔG00 where E^0(D^+/D) is the oxidation potential of the donor, E^0(A/A^−) is the reduction potential of the acceptor, and ΔG00 is the free energy corresponding to the equilibrium energy E00 (see e.g. Kavarnos, G. J. In Fundamentals of photoinduced electron transfer, VCH Publishers: New York, N.Y., 1993; p Chapter 1 and Rehm and Weller, Ist. J. Chem. 1970, 8, 259). The quantities wp and wr are Coulombic terms for the products and reactants, and ate found to be small in polar solvents. To simplify predictions, we assume wp and wr to be zero, and estimate E00 as the energy corresponding to [λmax(ex)+λmax(em)]/2 for each fluorophore.
ΔGPET=23.06[E^0(Z^oxidation)−E^0(F^reduction)]−ΔE00],
The electrochemical potentials can be measured using the individual molecular groups before assembling the complete molecule.
Electrochemistry. The search for new fluorescent glucose transducers based on PET requires, among other things, an understanding of the electrochemistry of any potential donor-acceptor pair. The free energy of PET (ΔGel) can be calculated using the Rehm-Weller equation shown in eq 1, where E^0(D^+/D) is the oxidation potential of the […]
ΔGe(kcal mol^−1)=23.06[E^0(D^+/D)−E^0(A/A^−)]−wp−wr−ΔG00 (1) donor, E^0(A/A^−) is the reduction potential of the acceptor, and ΔG00 is the free energy corresponding to the equilibrium energy E00. The quantities wp and wr are Coulombic terms for the products and reactants, and are found to be small in polar solvents. In our case, wr=0 since the reactants are neutral. To simplify predictions, we assume wp to be zero and estimate E00 as the energy corresponding to [λmax(ex)+λmax(em)]/2 for each fluorophore. […]
it is possible to estimate the free energy of photoinduced electron transfer (PET) in these systems (see e.g. Kavamos, G. J. Fundamentals of Photoinduced Electron Transfer, VCH: New York, 1993; pp 37-40). E0(D^+/D) and E^0(A/A^−) correspond to the […] of the electron donor (i.e. amine) and electron acceptor (i.e. fluorophore), respectively. The quantity ΔG00, is the equilibrium energy, which we estimate as the energy corresponding to the equilibrium wavelength λ00. As an estimate of λ00, we use the average of the excitation and emission maxima for each fluorophore. Smaller solvent-dependent work terms for the Coulombic interaction between the reactants and products are left out for simplicity. Since the mechanism of fluorescence switching in these systems depends on PET, this gives us a rough estimate of which fluorophores should give the best response to glucose.

[4] = vs. SCE, literature data for parent complexes; cited from earlier work
[5] = Glucose testing of naphthalimide boronates by fluorescence; settings: PBS buffer (pH 7.4)
Description: The fluorescence spectra of compounds 3 have been obtained as a function of increasing glucose concentration. […] These values range from 9% to 16% over the four compounds, with the two lower values coming from the two compounds having secondary amino groups. These low values of fractional switching are more than balanced out by the high quantum yields for compounds 3az and 3cz. As a measure of the total signal increase for each system, the product of quantum yield and fractional fluorescence increase are given in Table 1, showing that 3cz is the most promising sensor candidate of the group, as expected.
as §1
as §2, with “A 30.0 μL aliquot of solution was then added to 3.000 mL of the appropriate solvent mixture (a combination of methanol and phosphate buffered saline—PBS) giving a final concentration of 10.0 μM for each complex. Changes in pH were carried out by the addition of small volumes of concentrated hydrochloric acid, acetic acid, or sodium hydroxide. Glucose additions were performed by the addition of a concentrated solution of glucose in PBS to a stirred solution of fluorophore in a cuvette. Relative quantum yield measurements were carried out by measuring the relative intensities of equimolar solutions (10.0 μM) of two fluorophores. Compound 3ay was used as the reference.” left out

[6] = Fluorescence spectra and relative quantum yields of naphthalimide boronates; type: physicochemical; settings: for Emission λmax / Excitation λmax / Relative Quantum Yield: PBS buffer (pH 7.4); for Relative Quantum Yield: equimolar 10.0 μM solutions, 3ay as reference
Description: Sample excitation and emission spectra are shown in FIG. 27 for 3ay and 3cy, along with fluorescence maxima in Table 1. Literature references indicate a higher quantum yield for secondary-amine naphthalimide derivatives than for tertiary amines in otherwise similar compounds. The pragmatic value of this gain was examined, weighing synthetic difficulty against measurable relative quantum yields.
as §1, §2

| Compound | first oxidation potential (amine) [1] [V] | first reduction potential [1] [V] | change in fluorescence [2] [%] | signal increase ([2]; drop from pH 7 to pH 2) [%] | expected ΔGel ([3]; from literature reduction potentials of parent complexes) [kcal/mol] | reduction potential [4] [V] | Amine Oxidation Potential E° (D^+/D) [1] [V] | Fluorophore Reduction Potential E° (A/A^−) [1] [V] | Fluorescence Intensity Increase with added glucose (0 to 600 mg dL^−1) [5] [%] | change in quantum yield or wavelength maximum on removal of the THP protecting group [6] | Emission λmax [6] [nm] | Excitation λmax [6] [nm] | Relative Quantum Yield [6] | ΔGPET [3] [kcal/mol] | λ00 [3] [nm] |
| --- | --- | --- | --- | --- | --- | --- | --- | --- | --- | --- | --- | --- | --- | --- | --- |
| CCN(CC)Cc1ccnc(-c2cc(C)ccn2)c1.O=S(=O)([O-])C(F)(F)F.[C-]#[O+].[C-]#[O+].[C-]#[O+].[Re+].c1ccncc1 [(bpyCH2NEt2)Re(CO)3(py)](OTf), reference compound] | 1.35 | −1.20 | 61 | – | – | – | – | – | – | – | – | – | – | – | – |
| Cc1ccnc(-c2cc(CN(C)Cc3ccccc3)ccn2)c1.O=S(=O)([O-])C(F)(F)F.[C-]#[O+].[C-]#[O+].[C-]#[O+].[Re+].c1ccncc1 [[(bpyN)Re(CO)3(py)](OTf)] | 1.34 | −1.20 | 930 | 21 | – | – | – | – | – | – | – | – | – | – | – |
| [Cl][Ru][Cl].c1ccc(-c2ccccn2)nc1.c1ccc(-c2ccccn2)nc1.c1ccc(-c2ccccn2)nc1 [[Ru(bpy)3]Cl2, reference compound] | – | – | – | – | 12.5 | −1.31 | – | – | – | – | – | – | – | – | – |
| N-(5′-Tetrahydropyranoxypentyl)-4-(N′-aminoethylene-N″-ArBmethylamino)naphthalene-1,8-dicarboximide [Compound 3cz] | – | – | – | – | – | – | 1.00 | −1.53 | 10 | no significant change | 525 | 435 | 51.2 | -1.2 | 480 |
| N-(5′-Tetrahydropyranoxypentyl)-4-(N′-methylaminoethylene-N″-ArBmethylamino)naphthalene-1,8-dicarboximide [Compound 3cy] | – | – | – | – | – | – | 0.93 | −1.47 | 13 | – | 525 | 415 | 1.32 | -5.5 | 470 |
| N-n-Butyl-4-(N′-aminoethylene-N″-ArBmethylamino)naphthalene-1,8-dicarboximide [Compound 3az] | – | – | – | – | – | – | 1.05 | −1.48 | 9 | – | 535 | 435 | 44.2 | -0.62 | 485 |
| N-n-Butyl-4-(N′-methylaminoethylene-N″-ArBmethylamino)naphthalene-1,8-dicarboximide [Compound 3ay] | – | – | – | – | – | – | 0.91 | −1.48 | 16 | – | 535 | 420 | 1 | -4.8 | 478 |
